Assay results: BigSolDB 2.1

Oc1ccc([C@@H]2COc3cc(O)ccc3C2)cc1
solubility (mole fraction)
Settings | in isobutanol | in isopentanol | in isopropanol | in n-butanol | in n-heptane | in n-pentanol
273.15 K | 0.0174 | 0.0226 | 0.0295 | 0.0242 | 0.000431 | 0.0235
278.15 K | 0.02 | 0.0261 | 0.035 | 0.0284 | 0.00049 | 0.0273
283.15 K | 0.0229 | 0.0301 | 0.0412 | 0.0331 | 0.000554 | 0.0317
288.15 K | 0.0261 | 0.0345 | 0.0482 | 0.0384 | 0.000624 | 0.0365
293.15 K | 0.0296 | 0.0394 | 0.0561 | 0.0442 | 0.000699 | 0.0419
298.15 K | 0.0334 | 0.0447 | 0.065 | 0.0508 | 0.000781 | 0.0478
303.15 K | 0.0376 | 0.0506 | 0.0749 | 0.0581 | 0.00087 | 0.0544
308.15 K | 0.0421 | 0.057 | 0.086 | 0.0661 | 0.000964 | 0.0616
313.15 K | 0.047 | 0.0639 | 0.0982 | 0.0749 | 0.00107 | 0.0695
318.15 K | 0.0523 | 0.0715 | 0.112 | 0.0846 | 0.00117 | 0.078
323.15 K | 0.058 | 0.0797 | 0.127 | 0.0951 | 0.00129 | 0.0874
328.15 K | 0.0641 | 0.0885 | 0.143 | 0.107 | 0.00141 | 0.0975
333.15 K | 0.0706 | 0.098 | 0.161 | 0.119 | 0.00155 | 0.108
